This test addresses S. aureus GyrB ATPase (Staphylococcus aureus, UniProt P0A0K8). The test is described as follows: S. aureus GyrB ATPase inhibition (ammonium molybdate/malachite green phosphate detection). It counts as biochemical. Particulars: compound concentration of 1 μM (unless otherwise noted). As for the experimental part:
E. coli GyrB ATPase Inhibition Activity: Compounds can be tested for inhibition of E. coli GyrB ATPase activity using an ammonium molybdate/malachite green-based phosphate detection assay (Lanzetta, P. A., L. J. Alvarez, P. S. Reinach, and O. A. Candia, 1979, 100: 95-97). Assays can be performed in multiwell plates in 30 μl reactions containing: 50 mM Hepes buffer pH 7.5, 75 mM ammonium acetate, 8.0 mM magnesium chloride, 0.5 mM ethylenediaminetetraacetic acid, 5% glycerol, 1 mM 1,4-Dithio-DL-threitol, 200 nM bovine serum albumin, 1.6 μg/ml sheared salmon sperm DNA, 400 pM E. coli GyrA, 400 pM E. coli GyrB, 250 μM ATP, and compound in dimethylsulfoxide. Reactions can be quenched with 30 μl of ammonium molybdate/malachite green detection reagent containing 1.2 mM malachite green hydrochloride, 8.5 mM ammonium molybdate tetrahydrate, and 1 M hydrochloric acid. Plates can be read in an absorbance plate reader at 650 nm and percent inhibition values are calculated using dimethylsulfoxide (2%)-containing reactions as 0% inhibition and EDTA-containing (2.4 μM) reactions as 100% inhibition controls. An IC50 measurement of compound potency for each compound can be determined from reactions performed in the presence of 10 different compound concentrations. E. coli Topoisomerase IV ATPase Inhibition Activity: Compounds can be tested for inhibition of E. coli topoisomerase IV ATPase activity as described above for E. coli GyrB except the 30 μl reactions contained the following: 20 mM TRIS buffer pH 8, 50 mM ammonium acetate, 8 mM magnesium chloride, 5% glycerol, 5 mM 1,4-Dithio-DL-threitol, 0.005% Brij-35, 5 μg/ml sheared salmon sperm DNA, 500 pM E. coli ParC, 500 pM E. coli ParE, 160 μM ATP, and compound in dimethylsulfoxide. An IC50 measurement of compound potency for each compound can be determined from reactions performed in the presence of 10 different compound concentrations. S. aureus GyrB ATPase Inhibition Activity: Compounds may be tested for inhibition of S. aureus GyrB ATPase activity using an ammonium molybdate/malachite green-based phosphate detection assay (Lanzetta, P. A., L. J. Alvarez, P. S. Reinach, and O. A. Candia, 1979, 100: 95-97). Assays can be performed in multiwell plates in 30 μl reactions containing: 50 mM Hepes buffer pH 7.5, 75 mM ammonium acetate, 8.0 mM magnesium chloride, 0.5 mM ethylenediaminetetraacetic acid, 5% glycerol, 1.0 mM 1,4-Dithio-DL-threitol, 200 nM bovine serum albumin, 1.0 μg/ml sheared salmon sperm DNA, 250 pM E. coli GyrA, 250 pM S. aureus GyrB, 250 μM ATP, and compound in dimethylsulfoxide. Reactions can be quenched with 30 μl of ammonium molybdate/malachite green detection reagent containing 1.2 mM malachite green hydrochloride, 8.5 mM ammonium molybdate tetrahydrate, and 1 M hydrochloric acid. Plates can be read in an absorbance plate reader at 650 nm and percent inhibition values can be calculated using dimethylsulfoxide (2%)-containing reactions as 0% inhibition and EDTA-containing (2.4 μM) reactions as 100% inhibition controls. An IC50 measurement of compound potency for each compound can be determined from reactions performed in the presence of 10 different compound concentrations.
Compounds of the invention were tested in an assay substantially similar to the assay described above for measuring the inhibition of S. aureus GyrB ATPase. Percent inhibition of S. aureus GyrB ATPase at a compound concentration of 1 μM (unless otherwise noted) is disclosed in the following table: […]

Sequence of S. aureus GyrB ATPase (P0AES4 whole entry): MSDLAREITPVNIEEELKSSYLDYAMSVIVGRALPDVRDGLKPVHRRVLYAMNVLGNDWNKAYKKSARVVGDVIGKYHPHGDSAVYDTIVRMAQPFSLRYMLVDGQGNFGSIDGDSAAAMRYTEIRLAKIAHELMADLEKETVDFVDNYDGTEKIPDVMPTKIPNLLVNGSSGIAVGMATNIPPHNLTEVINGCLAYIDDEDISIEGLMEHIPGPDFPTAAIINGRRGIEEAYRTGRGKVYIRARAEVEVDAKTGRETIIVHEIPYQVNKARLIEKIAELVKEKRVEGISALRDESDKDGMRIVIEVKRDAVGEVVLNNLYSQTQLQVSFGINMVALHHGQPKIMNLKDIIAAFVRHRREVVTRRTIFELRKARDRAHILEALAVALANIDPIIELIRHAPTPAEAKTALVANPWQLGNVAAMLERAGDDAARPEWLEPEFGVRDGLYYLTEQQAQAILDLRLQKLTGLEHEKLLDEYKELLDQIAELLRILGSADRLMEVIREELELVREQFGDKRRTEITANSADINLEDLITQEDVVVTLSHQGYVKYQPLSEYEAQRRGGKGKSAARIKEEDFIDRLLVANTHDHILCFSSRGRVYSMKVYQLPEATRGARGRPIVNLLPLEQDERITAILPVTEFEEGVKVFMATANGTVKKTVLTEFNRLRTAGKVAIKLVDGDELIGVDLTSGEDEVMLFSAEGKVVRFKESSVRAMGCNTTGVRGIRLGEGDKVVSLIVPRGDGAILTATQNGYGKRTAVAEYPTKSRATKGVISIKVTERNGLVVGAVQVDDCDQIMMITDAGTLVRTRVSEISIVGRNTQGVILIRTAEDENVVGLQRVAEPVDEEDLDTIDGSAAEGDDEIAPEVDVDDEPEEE
Sequence of S. aureus GyrB ATPase (P0A0K8 whole entry): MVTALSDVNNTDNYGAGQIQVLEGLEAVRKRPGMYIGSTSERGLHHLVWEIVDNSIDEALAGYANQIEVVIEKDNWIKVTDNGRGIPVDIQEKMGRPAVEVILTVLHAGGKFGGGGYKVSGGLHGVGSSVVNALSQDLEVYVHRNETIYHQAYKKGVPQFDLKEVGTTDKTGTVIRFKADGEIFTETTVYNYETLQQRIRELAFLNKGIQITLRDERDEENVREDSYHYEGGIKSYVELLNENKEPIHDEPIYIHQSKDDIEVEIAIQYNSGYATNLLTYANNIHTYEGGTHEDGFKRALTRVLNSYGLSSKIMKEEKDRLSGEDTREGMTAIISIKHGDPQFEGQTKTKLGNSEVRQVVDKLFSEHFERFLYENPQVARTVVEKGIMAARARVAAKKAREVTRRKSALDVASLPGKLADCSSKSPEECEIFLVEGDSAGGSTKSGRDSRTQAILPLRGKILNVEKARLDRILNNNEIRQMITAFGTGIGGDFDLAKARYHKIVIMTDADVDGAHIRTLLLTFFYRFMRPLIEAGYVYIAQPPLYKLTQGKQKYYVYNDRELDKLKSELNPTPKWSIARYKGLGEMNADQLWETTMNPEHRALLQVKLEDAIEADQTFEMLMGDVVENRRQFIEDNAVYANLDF

`CCO[C@H]1CN(c2nc(-c3ncnn3C)c(C(=O)O)s2)CC[C@H]1NC(=O)c1[nH]c(C)c(Cl)c1Cl` [Example 8]: the inhibition at 1 µM is 100%.

`CCO[C@H]1CN(c2nc(-c3cnc(N4CCOCC4)cn3)c(C(=O)O)s2)CC[C@H]1NC(=O)c1[nH]c(C)c(Cl)c1Cl` [Example 87]: the inhibition at 1 µM came out at 109%.

For the compound `CCO[C@H]1CN(c2nc(-c3cnc(N4CCN[C@H](C)C4)cn3)c(C(=O)O)s2)CC[C@H]1NC(=O)c1[nH]c(C)c(Cl)c1Cl` [Example 102], the inhibition at 1 µM was found to be 112%.

Take `Cc1[nH]c(C(=O)N[C@@H]2CCN(c3nc(-c4cnc(NCCN5CCOCC5)cn4)c(C(=O)O)s3)C[C@@H]2C)c(Cl)c1Cl` [Example 171, 2-[(3S,4R)-4-{[(3,4-dichloro-5-methyl-1H-pyrrol-2-yl)carbonyl]amino}-3-methylpiperidin-1-yl]-4-(5-{[2-(morpholin-4-yl)ethyl]amino}pyrazin-2-yl)-1,3-thiazole-5-carboxylic acid]: the inhibition at 1 µM amounted to 101%.

Turning to `CCCO[C@H]1CN(c2nc(-c3nccn3CCOC)c(C(=O)O)s2)CC[C@H]1NC(=O)c1[nH]c(C)c(Cl)c1Cl` [Example 216, 2-[(3S,4R)-4-{[(3,4-dichloro-5-methyl-1H-pyrrol-2-yl)carbonyl]amino}-3-propoxypiperidin-1-yl]-4-[1-(2-methoxyethyl)-1H-imidazol-2-yl]-1,3-thiazole-5-carboxylic acid], the inhibition at 1 µM turned out to be 109%.

As to `CCCO[C@H]1CN(c2nc(-c3ncnn3C)c(C(=O)O)s2)CC[C@H]1NC(=O)c1[nH]c(C)c(Cl)c1C#N` [Example 208, 2-[(3S,4R)-4-{[(4-chloro-3-cyano-5-methyl-1H-pyrrol-2-yl)carbonyl]amino}-3-propoxypiperidin-1-yl]-4-(1-methyl-1H-1,2,4-triazol-5-yl)-1,3-thiazole-5-carboxylic acid], the inhibition at 1 µM was 108%.

`CCO[C@H]1CN(c2nc(-c3cnc(NCCN4CCN(C)CC4)cn3)c(C(=O)O)s2)CC[C@H]1NC(=O)c1[nH]c(C)c(Cl)c1Cl` [Example 95]: the inhibition at 1 µM is 114%.

In the case of `CO[C@H]1CN(c2nc(-c3cnc(N4CCN(CC(C)C)CC4)cn3)c(C(=O)O)s2)CC[C@H]1NC(=O)c1[nH]c(C)c(Cl)c1Cl` [Example 134], the inhibition at 1 µM was 104%.

Consider `Cc1[nH]c(C(=O)N[C@@H]2CCN(c3nc(-c4cnc(N5CCN(CC6CCCN(C)C6)CC5)cn4)c(C(=O)O)s3)C[C@@H]2C)c(Cl)c1Cl` (stereo partly drawn) [Example 177, 2-[(3S,4R)-4-{[(3,4-dichloro-5-methyl-1H-pyrrol-2-yl)carbonyl]amino}-3-methylpiperidin-1-yl]-4-(5-{4-[(1-methylpiperidin-3-yl)methyl]piperazin-1-yl}pyrazin-2-yl)-1,3-thiazole-5-carboxylic acid], for which the inhibition at 1 µM was 107%.

As for `CCO[C@H]1CN(c2nc(-c3nccn3CCOC)c(C(=O)O)s2)CC[C@H]1NC(=O)c1[nH]c(C)c(Cl)c1Cl` [Example 9], the inhibition at 1 µM was found to be 98%.

For the compound `CCCO[C@H]1CN(c2nc(-c3cnccn3)c(C(=O)O)s2)CC[C@H]1NC(=O)c1[nH]c(C)c(Cl)c1C#N` [Example 211, 2-[(3S,4R)-4-{[(4-chloro-3-cyano-5-methyl-1H-pyrrol-2-yl)carbonyl]amino}-3-propoxypiperidin-1-yl]-4-(pyrazin-2-yl)-1,3-thiazole-5-carboxylic acid], the inhibition at 1 µM came out at 107%.

In the case of `Cc1[nH]c(C(=O)N[C@@H]2CCN(c3nc(-c4cnc(N5CCN(CCO)CC5)cn4)c(C(=O)O)s3)C[C@@H]2C)c(Cl)c1Cl` [Example 182, 2-[(3S,4R)-4-{[(3,4-dichloro-5-methyl-1H-pyrrol-2-yl)carbonyl]amino}-3-methylpiperidin-1-yl]-4-{5-[4-(2-hydroxyethyl)piperazin-1-yl]pyrazin-2-yl}-1,3-thiazole-5-carboxylic acid], the inhibition at 1 µM came to 117%.

Regarding `CO[C@H]1CN(c2nc(-c3cnc(OCCN4CCCC4)cn3)c(C(=O)O)s2)CC[C@H]1NC(=O)c1[nH]c(C)c(Cl)c1Cl` [Example 62, 2-[(3S,4R)-4-{[(3,4-dichloro-5-methyl-1H-pyrrol-2-yl)carbonyl]amino}-3-methoxypiperidin-1-yl]-4-{5-[2-(pyrrolidin-1-yl)ethoxy]pyrazin-2-yl}-1,3-thiazole-5-carboxylic acid], the inhibition at 1 µM is 98%.

For `CCO[C@H]1CN(c2nc(-c3cnc(N4CCN(CC5CCCN(C)C5)CC4)cn3)c(C(=O)O)s2)CC[C@H]1NC(=O)c1[nH]c(C)c(Cl)c1Cl` (stereo partly shown) [Example 97], the inhibition at 1 µM is 112%.

On to `CO[C@H]1CN(c2nc(-c3cnc(NCCN4CCCC4=O)cn3)c(C(=O)O)s2)CC[C@H]1NC(=O)c1[nH]c(C)c(Cl)c1Cl` [Example 127], for which the inhibition at 1 µM is 110%.

With `CCN1CCN(c2ccnc(-c3nc(N4CC[C@@H](NC(=O)c5[nH]c(C)c(Cl)c5Cl)[C@@H](OC)C4)sc3C(=O)O)n2)CC1` [Example 193, 2-[(3S,4R)-4-{[(3,4-dichloro-5-methyl-1H-pyrrol-2-yl)carbonyl]amino}-3-methoxypiperidin-1-yl]-4-[4-(4-ethylpiperazin-1-yl)pyrimidin-2-yl]-1,3-thiazole-5-carboxylic acid], the inhibition at 1 µM came to 109%.

In the case of `CCO[C@H]1CN(c2nc(-c3cnc(N4CCN(CC(C)C)CC4)cn3)c(C(=O)O)s2)CC[C@H]1NC(=O)c1[nH]c(C)c(Cl)c1Cl` [Example 96], the inhibition at 1 µM is 104%.

As to `CCO[C@H]1CN(c2nc(-c3cnc(N4CCN(CCO)CC4)cn3)c(C(=O)O)s2)CC[C@H]1NC(=O)c1[nH]c(C)c(Cl)c1Cl` [Example 103], the inhibition at 1 µM was determined as 102%.

In the case of `CCO[C@H]1CN(c2nc(-c3cnc(N4CCNCC4)cn3)c(C(=O)O)s2)CC[C@H]1NC(=O)c1[nH]c(C)c(Cl)c1Cl` [Example 89], the inhibition at 1 µM amounted to 110%.

`COCCNc1cnc(-c2nc(N3CC[C@@H](NC(=O)c4[nH]c(C)c(Cl)c4Cl)[C@@H](OC)C3)sc2C(=O)O)cn1` [Example 128]: the inhibition at 1 µM stood at 110%.

On to `CO[C@H]1CN(c2nc(-c3cnc(NCC4CN5CCN4CC5)cn3)c(C(=O)O)s2)CC[C@H]1NC(=O)c1[nH]c(C)c(Cl)c1Cl` (stereo partly drawn) [Example 195, 4-{5-[(1,4-diazabicyclo[2.2.2]oct-2-ylmethyl)amino]pyrazin-2-yl}-2-[(3S,4R)-4-{[(3,4-dichloro-5-methyl-1H-pyrrol-2-yl)carbonyl]amino}-3-methoxypiperidin-1-yl]-1,3-thiazole-5-carboxylic acid], for which the inhibition at 1 µM worked out at 118%.

`CCO[C@H]1CN(c2nc(-c3cnccn3)c(C(=O)O)s2)CC[C@H]1NC(=O)c1cc(Cl)c(C)[nH]1` [Example 18]: the inhibition at 1 µM stood at 108%.

For the compound `CO[C@H]1CN(c2nc(-c3cnc(OCCN(C)C)cn3)c(C(=O)O)s2)CC[C@H]1NC(=O)c1[nH]c(C)c(Cl)c1Cl` [Example 63], the inhibition at 1 µM came out at 104%.

For `CCCO[C@H]1CN(c2nc(-c3ncccc3F)c(C(=O)O)s2)CC[C@H]1NC(=O)c1[nH]c(C)c(Cl)c1C#N` [Example 210, 2-[(3S,4R)-4-{[(4-chloro-3-cyano-5-methyl-1H-pyrrol-2-yl)carbonyl]amino}-3-propoxypiperidin-1-yl]-4-(3-fluoropyridin-2-yl)-1,3-thiazole-5-carboxylic acid], the inhibition at 1 µM is 109%.

With `C=CCO[C@H]1CN(c2nc(-c3ncnn3C)c(C(=O)O)s2)CC[C@H]1NC(=O)c1[nH]c(C)c(Cl)c1Cl` [Example 1, 2-[(3S,4R)-4-{[(3,4-dichloro-5-methyl-1H-pyrrol-2-yl)carbonyl]amino}-3-(prop-2-en-1-yloxy)piperidin-1-yl]-4-(1-methyl-1H-1,2,4-triazol-5-yl)-1,3-thiazole-5-carboxylic acid], the inhibition at 1 µM was determined as 99%.

The record behind these values is US8071605B2, “Piperidine compounds for use in the treatment of bacterial infections” (AstraZeneca AB, priority 2008, dated 2011).
